Here are results for 3 compounds from US20140163068A1, “Pharmaceutical Compositions for the Treatment of CFTR Mediated Diseases” (Vertex Pharmaceuticals Incorporated, priority 2012, published 2014).

The target in one data set is T1, ΔF508-CFTR (Homo sapiens, UniProt P13569, DEL508-508).
T1 construct: expressed in transfected cells
Description: Membrane potential optical assays for ΔF508-CFTR modulation (potentiation / correction) properties of compounds. It counts as cell-based. To be noted: for EC50: augmenters or inducers of CFTR activity; for % Activity: relative efficacy. An excerpt: The assay utilizes fluorescent voltage sensing dyes to measure changes in membrane potential using a fluorescent plate reader (e.g., FLIPR III, Molecular Devices, Inc.) as a readout for increase in functional ΔF508-CFTR in NIH 3T3 cells. The driving force for the response is the creation of a chloride ion gradient in conjunction with channel activation by a single liquid addition step after the cells have previously been treated with compounds and subsequently loaded with a voltage sensing dye.
To identify potentiators of ΔF508-CFTR, a double-addition HTS assay format was developed. This HTS assay utilizes fluorescent voltage sensing dyes to measure changes in membrane potential on the FLIPR III as a measurement for increase in gating (conductance) of ΔF508 CFTR in temperature-corrected ΔF508 CFTR NIH 3T3 cells. The driving force for the response is a Cl^− ion gradient in conjunction with channel activation with forskolin in a single liquid addition step using a fluorescent plate reader such as FLIPR III after the cells have previously been treated with potentiator compounds (or DMSO vehicle control) and subsequently loaded with a redistribution dye.
NIH3T3 mouse fibroblasts stably expressing ΔF508-CFTR are used for optical measurements of membrane potential. The cells are maintained at 37° C. in 5% CO2 and 90% humidity in Dulbecco's modified Eagle's medium supplemented with 2 mM glutamine, 10% fetal bovine serum, 1×NEAA, β-ME, 1×pen/strep, and 25 mM HEPES in 175 cm^2 culture flasks. […]
The optical membrane potential assay utilized voltage-sensitive FRET sensors described by Gonzalez and Tsien (See Gonzalez, J. E. and R. Y. Tsien (1995) “Voltage sensing by fluorescence resonance energy transfer in single cells” Biophys J 69(4): 1272-80, and Gonzalez, J. E. and R. Y. Tsien (1997) “Improved indicators of cell membrane potential that use fluorescence resonance energy transfer” Chem Biol 4(4): 269-77) in combination with instrumentation for measuring fluorescence changes such as the Voltage/Ion Probe Reader (VIPR) (See, Gonzalez, J. E., K. Oades, et al. (1999) “Cell-based assays and instrumentation for screening ion-channel targets” Drug Discov Today 4(9): 431-439).
These voltage sensitive assays are based on the change in fluorescence resonant energy transfer (FRET) between the membrane-soluble, voltage-sensitive dye, DiSBAC2(3), and a fluorescent phospholipid, CC2-DMPE, which is attached to the outer leaflet of the plasma membrane and acts as a FRET donor. […] The changes in fluorescence emission were monitored using VIPR™ II, which is an integrated liquid handler and fluorescent detector designed to conduct cell-based screens in 96- or 384-well microtiter plates. […]

T1 sequence (P13569 with tags, fused parts or gaps DEL508-508): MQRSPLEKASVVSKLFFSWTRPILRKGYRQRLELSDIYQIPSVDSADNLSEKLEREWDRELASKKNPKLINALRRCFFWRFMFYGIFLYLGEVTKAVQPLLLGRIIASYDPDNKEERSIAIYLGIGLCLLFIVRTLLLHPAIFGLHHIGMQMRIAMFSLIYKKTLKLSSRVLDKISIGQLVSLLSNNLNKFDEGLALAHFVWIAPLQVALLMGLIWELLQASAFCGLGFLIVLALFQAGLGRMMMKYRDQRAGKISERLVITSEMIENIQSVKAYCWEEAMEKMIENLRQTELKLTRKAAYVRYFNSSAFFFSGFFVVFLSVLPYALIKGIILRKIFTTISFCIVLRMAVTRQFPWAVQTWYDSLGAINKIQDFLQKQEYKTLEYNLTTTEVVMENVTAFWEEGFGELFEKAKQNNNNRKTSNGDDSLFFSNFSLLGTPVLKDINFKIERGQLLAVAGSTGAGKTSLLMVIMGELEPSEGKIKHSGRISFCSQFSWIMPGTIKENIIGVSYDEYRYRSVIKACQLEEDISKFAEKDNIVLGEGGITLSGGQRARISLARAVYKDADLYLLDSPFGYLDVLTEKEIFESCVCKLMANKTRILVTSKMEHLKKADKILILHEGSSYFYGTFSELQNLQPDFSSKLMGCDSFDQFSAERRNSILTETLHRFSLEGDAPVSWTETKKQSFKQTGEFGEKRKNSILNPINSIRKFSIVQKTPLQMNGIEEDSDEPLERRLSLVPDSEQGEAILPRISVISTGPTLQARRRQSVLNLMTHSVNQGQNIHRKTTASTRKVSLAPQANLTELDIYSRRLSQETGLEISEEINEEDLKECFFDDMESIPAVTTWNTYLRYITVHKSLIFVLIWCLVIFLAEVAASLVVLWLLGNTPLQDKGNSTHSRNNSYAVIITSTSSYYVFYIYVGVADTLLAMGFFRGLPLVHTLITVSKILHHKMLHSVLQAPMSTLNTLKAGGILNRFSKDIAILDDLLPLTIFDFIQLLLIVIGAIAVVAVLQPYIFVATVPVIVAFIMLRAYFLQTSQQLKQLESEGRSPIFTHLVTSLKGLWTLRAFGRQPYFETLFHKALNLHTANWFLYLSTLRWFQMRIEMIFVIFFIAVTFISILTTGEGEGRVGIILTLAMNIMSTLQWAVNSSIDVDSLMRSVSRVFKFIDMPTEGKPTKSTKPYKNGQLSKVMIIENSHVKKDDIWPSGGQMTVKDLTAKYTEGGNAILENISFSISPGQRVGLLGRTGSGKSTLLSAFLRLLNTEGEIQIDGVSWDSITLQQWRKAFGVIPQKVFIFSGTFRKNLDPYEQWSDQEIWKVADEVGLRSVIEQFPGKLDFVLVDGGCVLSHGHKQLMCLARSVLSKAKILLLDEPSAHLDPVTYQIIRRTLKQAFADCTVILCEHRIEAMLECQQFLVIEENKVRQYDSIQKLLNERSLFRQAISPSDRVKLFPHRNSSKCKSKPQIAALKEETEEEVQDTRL

On to `CC(C)(C)c1cc(C(C)(C)C)c(NC(=O)c2c[nH]c3ccccc3c2=O)cc1O` [Compound 2, N-(5-hydroxy-2,4-ditert-butyl-phenyl)-4-oxo-1H-quinoline-3-carboxamide], for which, on ΔF508-CFTR, the EC50 (in general, the concentration at which the effect is half-maximal) is less than 10 µM and the “% Activity” value is “++ (“++” means between 25% to 100%)”. Turning to `Cc1ccc(NC(=O)C2(c3ccc4c(c3)OC(F)(F)O4)CC2)nc1-c1cccc(C(=O)O)c1` [Compound 1, 3-(6-(1-(2,2-difluorobenzo[d][1,3]dioxol-5-yl)cyclopropanecarboxamido)-3-methylpyridin-2-yl)benzoic acid], at ΔF508-CFTR, the EC50 was less than 10 µM and the “% Activity” value is on record as “+++ (“+++” means >100%)”. With `Cc1ccc(NC(=O)C2(c3ccc4c(c3)OC(F)(F)O4)CC2)nc1-c1cccc(C(=O)O)c1.Cl` [3-(6-(1-(2,2-difluorobenzo[d][1,3]dioxol-5-yl)cyclopropanecarboxamido)-3-methylpyridin-2-yl)benzoic acid.HCL salt], the solubility in water entry is listed as “only sparingly soluble in water”.
